From ChEMBL document CHEMBL3885861, “Open TG-GATES”

Species on record: Rattus norvegicus
Test: Open TG-GATES - Regimen: Single
Assay type: toxicity, organism-based, Sprague-Dawley
Set-up: regimen Single, gender Male, age 6 weeks
Conditions: in vivo, po, 0 mg/kg, route gavage, dose level Control; for APTT / Bas / Eos / Fbg / Hb / Ht / Lym / MCH / MCHC / MCV / Mono / Neu / PT / Plat / RBC / Ret / WBC: tissue Blood; for KIDNEY_L / KIDNEY_R / KIDNEY_TOTAL: tissue Kidney; for LIVER: tissue Liver; for A/G / ALP / ALT / AST / BUN / CRE / Ca / Cl / DBIL / GLC / IP / K / LDH / Na / PL / RALB / TBIL / TC / TG / TP / gamma-GTP: tissue Plasma

CC[C@H]1[C@@H]2C[C@H]3[C@@H]4N(C)c5ccccc5[C@]45C[C@@H]([C@@H]2[C@H]5O)N3[C@@H]1O [AJMALINE]
TERMINAL_BW (3 h): 194.6 g | APTT (3 h): 16.6 s | Bas (3 h): 0% | Eos (3 h): 1% | Fbg (3 h): 202.8 mg/dL | Hb (3 h): 12.8 g/dL | Ht (3 h): 39.1% | Lym (3 h): 80.2% | MCH (3 h): 21.8 pg | MCHC (3 h): 32.9% | MCV (3 h): 66.3 fL | Mono (3 h): 6.8% | Neu (3 h): 12.2% | PT (3 h): 11.6 s | Plat (3 h): 109.9 x10_4/uL | RBC (3 h): 589.2 x10_4/ul | Ret (3 h): 12.5% | WBC (3 h): 94.6 x10_2/uL | KIDNEY_L (3 h): 0.9 g | KIDNEY_R (3 h): 0.9 g | KIDNEY_TOTAL (3 h): 1.9 g | LIVER (3 h): 9.4 g | A/G (3 h): 2.5 | ALP (3 h): 879.4 IU/L | ALT (3 h): 34.6 IU/L | AST (3 h): 66.8 IU/L | BUN (3 h): 10.6 mg/dL | CRE (3 h): 0.4 mg/dL | Ca (3 h): 11.4 mg/dL | Cl (3 h): 100.8 meq/L | DBIL (3 h): 0.04 mg/dL | GLC (3 h): 191.4 mg/dL | IP (3 h): 9.5 mg/dL | K (3 h): 4.4 meq/L | LDH (3 h): 95.4 IU/L | Na (3 h): 137.2 meq/L | PL (3 h): 149 mg/dL | RALB (3 h): 3.7 g/dL | TBIL (3 h): 0.3 mg/dL | TC (3 h): 82.4 mg/dL | TG (3 h): 69.4 mg/dL | TP (3 h): 5.3 g/dL | gamma-GTP (3 h): 2 IU/L | TERMINAL_BW (6 h): 192.3 g | APTT (6 h): 16.9 s | Bas (6 h): 0% | Eos (6 h): 1.2% | Fbg (6 h): 196.2 mg/dL | Hb (6 h): 13 g/dL | Ht (6 h): 39.5% | Lym (6 h): 73.4% | MCH (6 h): 21.5 pg | MCHC (6 h): 32.8% | MCV (6 h): 65.3 fL | Mono (6 h): 10.6% | Neu (6 h): 15% | PT (6 h): 11.6 s | Plat (6 h): 113.8 x10_4/uL | RBC (6 h): 605.4 x10_4/ul | Ret (6 h): 10.6% | WBC (6 h): 102.3 x10_2/uL | KIDNEY_L (6 h): 0.9 g | KIDNEY_R (6 h): 0.9 g | KIDNEY_TOTAL (6 h): 1.7 g | LIVER (6 h): 8.3 g | A/G (6 h): 2.2 | ALP (6 h): 832.4 IU/L | ALT (6 h): 34.6 IU/L | AST (6 h): 61.8 IU/L | BUN (6 h): 9.6 mg/dL | CRE (6 h): 0.5 mg/dL | Ca (6 h): 10.7 mg/dL | Cl (6 h): 103.4 meq/L | DBIL (6 h): 0.042 mg/dL | GLC (6 h): 187 mg/dL | IP (6 h): 10 mg/dL | K (6 h): 4.8 meq/L | LDH (6 h): 72.6 IU/L | Na (6 h): 138.8 meq/L | PL (6 h): 133.2 mg/dL | RALB (6 h): 3.5 g/dL | TBIL (6 h): 0.4 mg/dL | TC (6 h): 83.6 mg/dL | TG (6 h): 64.8 mg/dL | TP (6 h): 5.2 g/dL | gamma-GTP (6 h): 1.6 IU/L | TERMINAL_BW (9 h): 192.7 g | APTT (9 h): 17.8 s | Bas (9 h): 0% | Eos (9 h): 1% | Fbg (9 h): 199.4 mg/dL | Hb (9 h): 12.7 g/dL | Ht (9 h): 38.6% | Lym (9 h): 79.6% | MCH (9 h): 22.2 pg | MCHC (9 h): 32.9% | MCV (9 h): 67.5 fL | Mono (9 h): 7.8% | Neu (9 h): 11.6% | PT (9 h): 12.3 s | Plat (9 h): 114.2 x10_4/uL | RBC (9 h): 573.2 x10_4/ul | Ret (9 h): 9.6% | WBC (9 h): 93.3 x10_2/uL | KIDNEY_L (9 h): 0.9 g | KIDNEY_R (9 h): 0.9 g | KIDNEY_TOTAL (9 h): 1.8 g | LIVER (9 h): 8.2 g | A/G (9 h): 2.4 | ALP (9 h): 800.8 IU/L | ALT (9 h): 32.6 IU/L | AST (9 h): 63 IU/L | BUN (9 h): 12.2 mg/dL | CRE (9 h): 0.6 mg/dL | Ca (9 h): 10.4 mg/dL | Cl (9 h): 104.6 meq/L | DBIL (9 h): 0.064 mg/dL | GLC (9 h): 190.4 mg/dL | IP (9 h): 10.4 mg/dL | K (9 h): 4.9 meq/L | LDH (9 h): 82 IU/L | Na (9 h): 138.2 meq/L | PL (9 h): 126.4 mg/dL | RALB (9 h): 3.7 g/dL | TBIL (9 h): 0.3 mg/dL | TC (9 h): 74.6 mg/dL | TG (9 h): 42.8 mg/dL | TP (9 h): 5.2 g/dL | gamma-GTP (9 h): 0.8 IU/L | TERMINAL_BW (24 h): 206.2 g | APTT (24 h): 16.5 s | Bas (24 h): 0% | Eos (24 h): 0.8% | Fbg (24 h): 211.2 mg/dL | Hb (24 h): 12.6 g/dL | Ht (24 h): 38.2% | Lym (24 h): 75% | MCH (24 h): 21.6 pg | MCHC (24 h): 33.1% | MCV (24 h): 65.4 fL | Mono (24 h): 8.4% | Neu (24 h): 15.6% | PT (24 h): 11.5 s | Plat (24 h): 106.9 x10_4/uL | RBC (24 h): 584.2 x10_4/ul | Ret (24 h): 10.1% | WBC (24 h): 107.2 x10_2/uL | KIDNEY_L (24 h): 0.9 g | KIDNEY_R (24 h): 0.9 g | KIDNEY_TOTAL (24 h): 1.8 g | LIVER (24 h): 10.2 g | A/G (24 h): 2.1 | ALP (24 h): 885.6 IU/L | ALT (24 h): 38.6 IU/L | AST (24 h): 66.4 IU/L | BUN (24 h): 16.8 mg/dL | CRE (24 h): 0.6 mg/dL | Ca (24 h): 11 mg/dL | Cl (24 h): 102.6 meq/L | DBIL (24 h): 0.026 mg/dL | GLC (24 h): 202.2 mg/dL | IP (24 h): 8.4 mg/dL | K (24 h): 4.6 meq/L | LDH (24 h): 86.8 IU/L | Na (24 h): 140.6 meq/L | PL (24 h): 146.8 mg/dL | RALB (24 h): 3.6 g/dL | TBIL (24 h): 0.3 mg/dL | TC (24 h): 81 mg/dL | TG (24 h): 103 mg/dL | TP (24 h): 5.4 g/dL | gamma-GTP (24 h): 1.2 IU/L
